# According to patent US20180125993A1 (BEIJING COTIMES BIOTECH COMPANY LIMITED, priority 2014, published 2018):
# Marks after values point to notes of the source that are not given here.
# Tests used:
# Raji = assay: In vitro cytotoxic sensitivity of CTB006; type: cell-based, human; conditions: B cell lymphoma
# 7901 = assay: In vitro cytotoxic sensitivity of CTB006; type: cell-based, human; conditions: 7901, Stomach cancer
# colon cancer, CS263, 1# = assay: Patients primary tumor tissue subcutaneous model (Day 35 after treatment); type: in vivo, nude mice; conditions: HuCTB006 10 mg/kg i.v. QW × 4w
# Source text: Fresh primary tumor tissues from patients were implanted in NOD/SCID mice's flank, which developed into a primary tumor, which was then transferred to the nude mice's flank to allow the tumor reaching an exponential growth phase, and the tumor was named 1# tumor, and so on. When the tumor volume and number reached passage requirements, they were implanted into the right flank of nude mice. When the tumors' average volumes reached 100-200 mm^3, the mice were grouped.
# The bodyweight and major/minor axis of mice were measured twice a week, and Tumor Growth Inhibition (TGI) and tumor volume were calculated same as in 5.1.5. In addition, to evaluate the synergetic effect of drug combination in tumor growth, Jin Zhengjun Q value judgment method was used with the follow formula: Q=Ea+b/(Ea+Eb−Ea×Eb). Ea+b is the inhibition ratio of drug combination, Ea and Eb are the inhibition ratio of each of drug treatment when it is administered alone. […] The animals were monitored, and when the experiments were concluded, mice were sacrificed and tumors were extracted and weighted. All the animal experiments confer to the regulations of animal's welfare and the management of experimental animal usage.
# Tumor volumes were represented with average±standard error. Data analysis was done using Spss16.0, One-Way ANOVA, LSD (homogeneity of variance) or Dunnett T3 (non-homogeneity of variance). […] P<0.05 represents significant difference.
# ASPC-1 = assay: In vitro cytotoxic sensitivity of CTB006; type: cell-based, human; conditions: ASPC-1, Pancreatic cancer
# [1] = system: WI-38, HFL-1, HUV-EC-C, human hepatic differentiated cells; assay: Cytotoxicity of HuCTB006 on human normal tissue cell lines; type: cell-based; conditions: 24 hours after the treatments
# Source text: Several human normal tissue cell lines, including human lung epithelial fibroblasts WI-38, human embryonic lung fibroblasts HFL-1, human umbilical vein epithelial cells HUV-EC-C, and human hepatic differentiated cells, which were derived from liver genitor cells (obtained from Peking University Third Hospital). […] The culture medium for WI-38 was MEM, and the culture medium for HFL-1 and HUV-EC-C was F-12K.
# Daudi = assay: In vitro cytotoxic sensitivity of CTB006; type: cell-based, human; conditions: B cell lymphoma
# HT-29 = assay: In vitro cytotoxic sensitivity of CTB006; type: cell-based, human; conditions: HT-29, Colorectal cancer
# WiDr = assay: Human colon cancer Widr subcutaneous model (Day 27 after treatment); type: in vivo, nude mice
# Experimental: Tumor cells (i.e., MIA-PaCa-2, WiDr, H2122, colo205) were inoculated in nude mice's flank at 5×10^6 cells per mouse. The mice were grouped when the average volume of tumors reached about 100˜200 mm^3. “QW”=weekly dose. “Q3d”=dosed every third day. “BiW”=biweekly.
# The bodyweight and major/minor axis of the mice were measured twice a week, and the tumor volumes were calculated using the formula: Tumor volume=1/2×major axis[…]. […] “T” represents average tumor volume of the experimental group (cm^3), and “C” represents average tumor volume of the control group (cm^3). The animals were monitored at all times. The bodyweight and major/minor axis or mice were measured twice a week.
# Tumor volumes were represented with average±standard error. […] P<0.05 represents significant difference.
# ZR-75-30 = assay: In vitro cytotoxic sensitivity of CTB006; type: cell-based, human; conditions: ZR-75-30, Breast cancer
# HT1080 = assay: In vitro cytotoxic sensitivity of CTB006; type: cell-based, human; conditions: HT1080, Fibrosarcoma
# A549 = assay: In vitro cytotoxic sensitivity of CTB006; type: cell-based, human; conditions: A549, Lung cancer
# Capan-1 = assay: In vitro cytotoxic sensitivity of CTB006; type: cell-based, human; conditions: Capan-1, Pancreatic cancer
# BT-20 = assay: In vitro cytotoxic sensitivity of CTB006; type: cell-based, human; conditions: BT-20, Breast cancer
# [2] = HuCTB006 0.07 mg/kg i.v. QW × 4W
# [3] = HuCTB006 0.07 mg/kg i.v. QW × 4W, 0.07 mg/kg
# [4] = HuCTB006 0.07 mg/kg i.v. QW × 4W, listed as HUCTB006, 0.07 mg/kg
# [5] = HuCTB006 0.22 mg/kg i.v. QW × 4W
# [6] = HuCTB006 0.22 mg/kg i.v. QW × 4W, 0.22 mg/kg
# [7] = HuCTB006 0.22 mg/kg i.v. QW × 4W, listed as HUCTB006, 0.22 mg/kg
# [8] = HuCTB006 0.67 mg/kg i.v. QW × 4W
# [9] = HuCTB006 0.67 mg/kg i.v. QW × 4W, 0.67 mg/kg
# [10] = HuCTB006 0.67 mg/kg i.v. QW × 4W, listed as HUCTB006, 0.67 mg/kg
# [11] = HuCTB006 2 mg/kg i.v. QW × 4W, 2 mg/kg
# [12] = HuCTB006 2 mg/kg i.v. QW × 4W, listed as HUCTB006, 2 mg/kg
# [13] = repeated experiment, HuCTB006 0.07 mg/kg
# [14] = repeated experiment, HuCTB006 0.22 mg/kg
# [15] = repeated experiment, HuCTB006 0.67 mg/kg
# [16] = repeated experiment, HuCTB006 2 mg/kg
substance,measurement,setting,value
"HuCTB006: Monospecific humanized chimeric monoclonal antibody directed to TRAIL-R2 receptor; heavy chain SEQ ID NO: 14, light chain SEQ ID NO: 12",In vitro cytotoxic sensitivity of CTB006,Raji,Non-responder
same,In vitro cytotoxic sensitivity of CTB006,7901,Non-responder
same,T/C % (Calculated using tumor volumes),"colon cancer, CS263, 1#",89.71%
same,TGI (Calculated using tumor volumes),"colon cancer, CS263, 1#",9.42%
same,TGI (Calculated using tumor weight),"colon cancer, CS263, 1#",16.11%
same,Time of tumor volume changed significantly,"colon cancer, CS263, 1#",13
same,Tumor Volume Mean ± SEM,"colon cancer, CS263, 1#",0.96 ± 0.22 cm^3
same,Tumor weight Mean ± SEM,"colon cancer, CS263, 1#",0.67 ± 0.16 g
same,TGI (Calculated using tumor volumes),"colon cancer, CS263, 1#; 10 mg/kg",9.42%
same,TGI (Calculated using tumor weight),"colon cancer, CS263, 1#; 10 mg/kg",16.11%
same,In vitro cytotoxic sensitivity of CTB006,ASPC-1,Non-responder
same,cytotoxicity on human normal tissue cells,[1],no cytotoxicity
same,In vitro cytotoxic sensitivity of CTB006,Daudi,Non-responder
same,In vitro cytotoxic sensitivity of CTB006,HT-29,Non-responder
same,T/C % (Calculated using tumor volume),WiDr; [2],90.16%
same,Time of tumor volume changed significantly,WiDr; [2],7
same,Tumor Volume Mean ± SEM,WiDr; [2],1.76 ± 0.18 cm^3
same,Tumor weight Mean ± SEM,WiDr; [2],1.29 ± 0.18 g
same,TGI (Calculated using tumor volume),WiDr; [3],6.61%
same,TGI (Calculated using tumor weight),WiDr; [3],11.99%
same,TGI (Calculated using tumor volume),WiDr; [4],6.61% ^1
same,TGI (Calculated using tumor weight),WiDr; [4],11.99%
same,T/C % (Calculated using tumor volume),WiDr; [5],81.49%
same,Time of tumor volume changed significantly,WiDr; [5],7
same,Tumor Volume Mean ± SEM,WiDr; [5],1.54 ± 0.18 cm^3
same,Tumor weight Mean ± SEM,WiDr; [5],1.16 ± 0.13 g
same,TGI (Calculated using tumor volume),WiDr; [6],18.71%
same,TGI (Calculated using tumor weight),WiDr; [6],21.13%
same,TGI (Calculated using tumor volume),WiDr; [7],18.71% ^ac
same,TGI (Calculated using tumor weight),WiDr; [7],21.13%
same,T/C % (Calculated using tumor volume),WiDr; [8],49.54%
same,Time of tumor volume changed significantly,WiDr; [8],11
same,Tumor Volume Mean ± SEM,WiDr; [8],0.96 ± 0.10 cm^3
same,Tumor weight Mean ± SEM,WiDr; [8],0.68 ± 0.08 g
same,TGI (Calculated using tumor volume),WiDr; [9],49.42%
same,TGI (Calculated using tumor weight),WiDr; [9],53.48%
same,TGI (Calculated using tumor volume),WiDr; [10],49.42% ^abc
same,TGI (Calculated using tumor weight),WiDr; [10],53.48% ^a
same,T/C % (Calculated using tumor volume),WiDr; HuCTB006 2 mg/kg i.v. QW × 4W,42.17%
same,Time of tumor volume changed significantly,WiDr; HuCTB006 2 mg/kg i.v. QW × 4W,14
same,Tumor Volume Mean ± SEM,WiDr; HuCTB006 2 mg/kg i.v. QW × 4W,0.80 ± 0.11 cm^3
same,Tumor weight Mean ± SEM,WiDr; HuCTB006 2 mg/kg i.v. QW × 4W,0.53 ± 0.08 g
same,TGI (Calculated using tumor volume),WiDr; [11],57.34%
same,TGI (Calculated using tumor weight),WiDr; [11],63.81%
same,TGI (Calculated using tumor volume),WiDr; [12],57.34% ^abc
same,TGI (Calculated using tumor weight),WiDr; [12],63.81% ^a
same,TGI (Calculated using tumor volume),WiDr; [13],36.21%
same,TGI (Calculated using tumor weight),WiDr; [13],39.94%
same,TGI (Calculated using tumor volume),WiDr; [14],54.98%
same,TGI (Calculated using tumor weight),WiDr; [14],57.56%
same,TGI (Calculated using tumor volume),WiDr; [15],53.73%
same,TGI (Calculated using tumor weight),WiDr; [15],49.85%
same,TGI (Calculated using tumor volume),WiDr; [16],53.77%
same,TGI (Calculated using tumor weight),WiDr; [16],53.75%
same,In vitro cytotoxic sensitivity of CTB006,ZR-75-30,Non-responder
same,In vitro cytotoxic sensitivity of CTB006,HT1080,Non-responder
same,In vitro cytotoxic sensitivity of CTB006,A549,Non-responder
same,In vitro cytotoxic sensitivity of CTB006,Capan-1,Non-responder
same,In vitro cytotoxic sensitivity of CTB006,BT-20,Non-responder
